Source: patent publication US20260355137A1, “NOVEL OPHTHALMIC FORMULATION” (FERTIS INDIA PVT LTD, priority 2022, published 2026)
“Also recorded” adds a separate entry of the source.

Legend:
Assay type in all cases: in vivo, New Zealand rabbit
[1] = test system: cataract induced left eye; experiment: Macroscopic examination, cataract induced left eye (cinnamic acid derivatives, Tables 10-11); conditions: for No Abnormality Detected, incidence: animals affected/6
Description: (§1) An illustrative ophthalmic formulation for treatment of eye disease is set forth below: The formulations provided herein below are tested in cataract induced New Zealand rabbits, and the results are discussed herein below.
(§2) Cataract was induced by injecting 0.5% Methyl Cellulose, which is replaced by aqueous humor in the rabbit eye (i.e., 0.2 mL of Aqueous humor was withdrawn and the same 0.2 mL of 0.5% Methyl cellulose was injected as a replacement). Cataract was observed within 3-4 days of 0.5% Methyl cellulose replacement. Cataract induction was performed to left eye and right eye was served as a control.
(§3) Rabbits were observed by ophthalmoscope and slit lamp once in three days for cataract confirmation. Intraocular pressure was measured with a tonometer once in three days for the confirmation of glaucoma.

[2] = test system: cataract induced left eye: lens; experiment: Microscopic observations (histopathology) of lens (Table 12)
Description: as §1, §2
(§4) All surviving animals were euthanized on Day 29 by overdose of Thiopental Sodium. Before scheduled euthanasia, the animals were fasted overnight (water allowed) and terminal body weights were recorded. Animals were subjected to detailed macroscopic observation during necropsy. Both right (untreated/uninduced) and left (treated/induced) eyes were collected and cornea and lens were separated, preserved in Davidson fluid. Cornea and lens selected for histopathological evaluation were processed, embedded and sections were cut at 3-5 μm thickness, Sections were placed on grease-free slides and stained with Hematoxylin and Eosin. A 5-step grading system of minimum, mild, moderate, marked and severe will be used to rank microscopic findings for comparison among groups. Data was compiled based on incidences and severity of changes.

[3] = test system: intraocular pressure, induced left eye; experiment: Intraocular pressure, tonometer (Table 13); parameters: unit not given beside the values; conditions: left eye induced/treated
Description: as §2, §3
(§5) Intra-ocular pressures were measured in animals in each group once in three days using a Tonometer. The readings were documented for each eye separately.

[4] = test system: cataract induced left eye; experiment: Macroscopic examination, cataract induced left eye (Tables 14-15)
Description: as §1, §2, §3

[5] = test system: cataract induced left eye: lens and cornea; experiment: Microscopic examination (histopathology) of lens and cornea (Table 16)
Description: as §1, §2, §4

[6] = test system: intraocular pressure, glaucoma-induced left eye; experiment: Intraocular pressure, tonometer (Table 17); conditions: for Intraocular pressure, Mean, Left eye: Left (induced) eye; for Intraocular pressure, Mean, Left eye / Intraocular pressure, Mean, Right eye: male, 6 animals/group
Description: as §2, §3, §5

[7] = test system: cataract and intraocular pressure/glaucoma in induced rabbit eye; experiment: Overall efficacy in cataract reduction and reducing intraocular pressure
Description: as §1
(§6) The following preclinical studies were conducted in rabbit model to test the efficacy of various active ingredients.
as §2, §3

[8] = test system: cataract induced New Zealand rabbits (left eye); experiment: Macroscopic observations, cataract induced left eye (study of rosmarinic acid formulations, Tables 2-3); conditions: ocular 100 μL/rabbit, 28 days, F1 0.25%, F2 0.5%, F3 1.0% rosmarinic acid each with N-acetyl carnosine, F4 0.5% without
Description: as §1, §6, §2, §3
Test Item formulations were administered through ocular route. Ocular route has been chosen as it is the intended therapeutic route of administration in humans.
All test formulations provided as above were administered topically as a therapeutic treatment. A total of 100 μL/Rabbit of placebo or Rosmarinic acid formulations (F1, F2, F3 and F4) were instilled in the 50 μL/eye (left) in two divided doses for 28 days […]

[9] = test system: cataract induced left eye: lens and cornea; experiment: Microscopic observations (histopathology) of lens and cornea (Tables 4-8); conditions: 0.5% rosmarinic acid, Table 8, G5 group
Description: as §1, §2
(§7) All test formulations provided as above were administered topically as a therapeutic treatment. A total of 100 μL/Rabbit of placebo or Rosmarinic acid formulations (F1, F2, F3 and F4) were instilled in the 50 μL/eye (left) in two divided doses for 28 days
as §4

[10] = test system: intraocular pressure, glaucoma-induced left eye; experiment: Intraocular pressure, tonometer (Table 9); conditions: 0.5%, Table 9 G5 group
Description: as §2, §3, §7

[11] = left eye (cataract induced), macroscopic
[12] = left eye (cataract induced), lens
[13] = left eye (cataract induced), lens, number of animals
[14] = second study, 0.5% rosmarinic acid (G2), 0.25% caffeic acid (G6)

## O=C(O)/C=C/c1ccc(O)c(O)c1 [Caffeic acid]
[1]; [11]
  Opacity, cornea and red discoloured, with diffuse opacity: Moderate, incidence: 1/6
  Opacity, cornea, diffuse: Mild, incidence: 1/6
  Opacity, cornea, diffuse: Minimal, incidence: 1/6
  Opacity, cornea, diffuse: Moderate, incidence: 1/6
  No Abnormality Detected, incidence: 1/6
[2]; Table 12, G2 0.5% rosmarinic acid, G6 0.25% caffeic acid
  histopathological findings, lens (in words): a higher incidence of lenticular degeneration
[2]; left eye (cataract induced)
  Within Normal Histological Limits, incidence: 0/6
[2]; [12]
  Epithelial proliferation, incidence: 3/6
  Epithelial proliferation: Absent, incidence: 3/6
  Lenticular Degeneration, incidence: 6/6
  Liquefaction, incidence: 4/6
  Liquefaction: Absent, incidence: 2/6
[2]; [13]
  Epithelial proliferation: Mild, incidence: 1
  Epithelial proliferation: Minimal, incidence: 1
  Epithelial proliferation: Moderate, incidence: 1
  Liquefaction: Mild, incidence: 1
  Liquefaction: Minimal, incidence: 2
  Liquefaction: Moderate, incidence: 1
[3]; Day 3
  Intraocular Pressure, mean: 90.35
[3]; Day 6
  Intraocular Pressure, mean: 63.22
[3]; Day 9
  Intraocular Pressure, mean: 62.17
[3]; Day 12
  Intraocular Pressure, mean: 65.93
[3]; Day 15
  Intraocular Pressure, mean: 45.45
[3]; Day 18
  Intraocular Pressure, mean: 45.73
[3]; Day 21
  Intraocular Pressure, mean: 41.50
[3]; Day 24
  Intraocular Pressure, mean: 38.93
[3]; Day 27
  Intraocular Pressure, mean: 32.12
[3]; Day 30
  Intraocular Pressure, mean: 30.78
[3]; Day 33
  Intraocular Pressure, mean: 26.60↓↓
[4]; Table 15
  cataract efficacy, macroscopic (in words): all 6 animals were completely recovered, and no cataract was observed at all
[4]; [11]
  No Abnormality Detected, incidence: 6/6
[5]; Table 16
  cataract efficacy, histopathology (in words): fully regenerated in 5 out of 6 animals, from severe degeneration to a minimal scale; also recorded: One animal exhibited complete recovery
[5]; left eye induced
  Lens, Liquefaction: Minimal, incidence: 5/6
  No abnormality (histopathology), incidence: 1/6
[6]; Day 3
  Intraocular pressure, Mean, Left eye: 41.50 mmHg
  Intraocular pressure, Mean, Right eye: 15.83 mmHg
[6]; Day 6
  Intraocular pressure, Mean, Left eye: 23.89 mmHg
  Intraocular pressure, Mean, Right eye: 19.11 mmHg
[6]; Day 9
  Intraocular pressure, Mean, Left eye: 21.61 mmHg
  Intraocular pressure, Mean, Right eye: 16.61 mmHg
[6]; Day 12
  Intraocular pressure, Mean, Left eye: 25.33 mmHg
  Intraocular pressure, Mean, Right eye: 16.94 mmHg
[6]; Day 15
  Intraocular pressure, Mean, Left eye: 25.11 mmHg
  Intraocular pressure, Mean, Right eye: 14.61 mmHg
[6]; Day 18
  Intraocular pressure, Mean, Left eye: 29.56 mmHg
  Intraocular pressure, Mean, Right eye: 15.44 mmHg
[6]; Day 21
  Intraocular pressure, Mean, Left eye: 29.94 mmHg
  Intraocular pressure, Mean, Right eye: 15.28 mmHg
[6]; Day 25
  Intraocular pressure, Mean, Left eye: 24.78 mmHg
  Intraocular pressure, Mean, Right eye: 17.17 mmHg
[6]; Day 28, ↓↓ = Significantly low at P ≤ 0.01 compared to respective control
  Intraocular pressure, Mean, Left eye: 21.11↓↓ mmHg
[6]; Day 28
  Intraocular pressure, Mean, Right eye: 17.11 mmHg
[6]; induced left eye, 28-day treatment regimen, 0.5%
  intraocular pressure following treatment: 21.11 mmHg
[6]; induced left eye, six animals, within three days
  mean intraocular pressure initially measured: 41.5 mmHg
[7]; [14]
  overall efficacy (in words): showed promise
[7]; second study, 0.5% rosmarinic acid (G2), 0.25% caffeic acid (G6), listed as caffeic acid
  overall efficacy (in words): shown to be the best
[7]; third study, cataract reduction and reducing intraocular pressure, highest to lowest
  overall efficacy / order of efficacy (in words): showed the best results, with remarkable efficacy not only in cataract reduction but also in addressing glaucoma; also recorded: Caffeic Acid G3>Epigallocatechin Gallate G4>Encapsulated Feruloyl Tyramine G5>Ferulic Acid G6>Rosmarinic Acid+Caffeic Acid G2

## O=C(/C=C/c1ccc(O)c(O)c1)O[C@H](Cc1ccc(O)c(O)c1)C(=O)O [Rosmarinic acid]
[8]
  Macroscopic inference (Left Eye): no abnormalities found in all the 6 animals
[9]
  corneal edema (in words): five animals' corneal edema was within histological limits and one animal with minimal corneal edema
  epithelial proliferation in lens (in words): In five animals' epithelial proliferation in lens was within histological limits; also recorded: Only one animal displayed minimal epithelial proliferation
  liquefaction in the lens (in words): in four animals, liquefaction in the lens is within histological limits; also recorded: in two animals, minimal liquefaction was observed
[10]; 28-day treatment regimen
  intraocular pressure following treatment: 20.06 mmHg
[10]; within six days
  intraocular pressure initially measured: 59.72 mmHg
[1]; Table 11, G2 0.5% rosmarinic acid, G6 0.25% caffeic acid
  macroscopic examination (in words): minimal corneal opacity in some animals, with no abnormalities in one
[1]; [11]
  Opacity, cornea and red discoloured, with diffuse opacity: Minimal, incidence: 1/6
  Opacity, cornea, diffuse: Mild, incidence: 1/6
  Opacity, cornea, diffuse: Minimal, incidence: 3/6
  No Abnormality Detected, incidence: 1/6
[2]; left eye (cataract induced)
  Within Normal Histological Limits, incidence: 0/6
[2]; [12]
  Epithelial proliferation, incidence: 2/6
  Epithelial proliferation: Absent, incidence: 4/6
  Lenticular Degeneration, incidence: 4/6
  Liquefaction, incidence: 4/6
  Liquefaction: Absent, incidence: 2/6
[2]; [13]
  Epithelial proliferation: Marked, incidence: 1
  Epithelial proliferation: Minimal, incidence: 1
  Liquefaction: Marked, incidence: 1
  Liquefaction: Minimal, incidence: 3
[3]; Day 3
  Intraocular Pressure, mean: 83.15
[3]; Day 6
  Intraocular Pressure, mean: 77.55
[3]; Day 9
  Intraocular Pressure, mean: 78.72
[3]; Day 12
  Intraocular Pressure, mean: 66.83
[3]; Day 15
  Intraocular Pressure, mean: 48.83
[3]; Day 18
  Intraocular Pressure, mean: 48.48
[3]; Day 21
  Intraocular Pressure, mean: 46.77
[3]; Day 24
  Intraocular Pressure, mean: 44.55
[3]; Day 27
  Intraocular Pressure, mean: 42.62
[3]; Day 30
  Intraocular Pressure, mean: 23.27
[3]; Day 33
  Intraocular Pressure, mean: 18.45↓↓
[7]; 0.5% rosmarinic acid, G5 of first study
  overall efficacy (in words): demonstrates its efficacy not only in preventing lens liquefaction, epithelial proliferation, and corneal edema and treating cataract but also in reducing intraocular pressure
[7]; [14]
  overall efficacy (in words): shown to be the best; also recorded: superior efficacy
